Measured values: patent US10130611B2, “Use of benzo-heterocycle derivatives for preventing and treating cancer or for inhibiting cancer metastasis” (MEDICINAL BIOCONVERGENCE RESEARCH CENTER, priority 2009, dated 2018)

Experiments:
[1] = biological target: T1, KRS-AIMP2 (Homo sapiens, UniProt Q15046); test: Yeast two hybrid specificity test, LexA-KRS/B42-AIMP2 pair; assay type: cell-based; conditions: compound at 50 μg/ml, DMSO control 1.3204
T1 construct: expressed in transfected cells; host or cells: yeast (EGY/SH is stated for the KRS/LR pair)
Protocol: On the compound of the present invention obtained by screening a library of compounds, the extent of inhibition on the interaction between KRS and laminin receptor (67LR) was determined by a yeast two hybrid assay, as described below. KRS, LR, AIMP2, AIMP3 and MRS were cloned at LexA vector (clontech) and B42 vector (clontech) each so as to produce required vectors. From among the vectors, LexA-KRS vector and B42-LR vector were co-transformed into yeast EGY/SH cells, and then the yeast cells were diluted to an absorbance (540 nm wavelength) of 0.2 in galactose medium not containing uracil (Ura), histidine (His), tryptophane (Trp) and leucine (Leu), and placed in an amount of 200 u in a 96 well plate. 1 μl of each compound at a concentration of 10 mg/ml was placed in each well, incubated for 6 days, and the absorbance was measured at 540 nm. […] The inhibitory specificity of the selected compound was tested by using two different interaction pairs such as LexA-KRS/B42-AIMP2 and LexA-MRS/B42-AIMP3. […]

[2] = test system: A549 cells; test: Cell migration assay (transwell membrane); assay type: cell-based, human; conditions: KL1 in different amounts, 8 hours
Protocol: On MMP2 activity (FIG. 37) and cell migration (FIGS. 38 and 39), KL1-dose-dependent effect was measured. For the test on the cell migration, the cells were treated with KL1 for 8 hours. In FIG. 40, in order to see the effect of KL1 on protein synthesis of cells, A549 cells were treated with KL1 at indicated concentrations, and starved in methionine-free medium. Then, [^35S] methionine was added thereto for 2 hours. Then, the cells were incubated in complete medium for 4 hours, and the level of added methionine was measured by a scintillation counter. In FIG. 41, KL1-dose-dependent cytotoxicity was measured by using A549 cells. In FIG. 42, the effect of KL1 on cancer metastasis was measured according to the method as described above. In each group, 6 mice were included, and KL1 was abdominally injected for 3 weeks, in a dose of 30 mg/kg once a day. […] The metastasized tumor nodules over 1 mm in diameter were counted, and their average was calculated (left). […]
Cell migration was measured by using 24-well transwell chambers with polycarbonate membranes (8.0 μm pore size, Costar) as previously described (Park, S. G. et al. Human lysyl-tRNA synthetase is secreted to trigger pro-inflammatory response, Proc. Natl. Acad. Sci. USA 102, 6356-6361 (2005)). […] The migrated cells (attached to the lower face of the membrane) were counted at four randomly selected sites by a microscope (×20).

[3] = test system: A549 cells; test: Cell protein synthesis ([35S]methionine incorporation); assay type: cell-based, human; conditions: KL1 at indicated concentrations, [35S]methionine 2 hours
Protocol: On MMP2 activity (FIG. 37) and cell migration (FIGS. 38 and 39), KL1-dose-dependent effect was measured. For the test on the cell migration, the cells were treated with KL1 for 8 hours. In FIG. 40, in order to see the effect of KL1 on protein synthesis of cells, A549 cells were treated with KL1 at indicated concentrations, and starved in methionine-free medium. Then, [^35S] methionine was added thereto for 2 hours. Then, the cells were incubated in complete medium for 4 hours, and the level of added methionine was measured by a scintillation counter. In FIG. 41, KL1-dose-dependent cytotoxicity was measured by using A549 cells. In FIG. 42, the effect of KL1 on cancer metastasis was measured according to the method as described above. In each group, 6 mice were included, and KL1 was abdominally injected for 3 weeks, in a dose of 30 mg/kg once a day. Then, the mice were sacrificed. The metastasized tumor nodules over 1 mm in diameter were counted, and their average was calculated (left). The photograph of a representative lung is shown at the right side. […]
A549 cells were treated with the compound (2-[2-(4-methyl-benzoylimino)-benzothiazole-3-yl]-butyric acid, CAND-KL1 or KL1) represented by Formula 15, at indicated concentrations. […] They were lysed, and the radiation dose of lysed cells was measured by a scintillation counter.

[4] = test system: A549 cells; test: Cytotoxicity analysis (EZ-cytox); assay type: cell-based, human; conditions: KL1 at indicated concentrations, 24 hours
Protocol: 10^4 A549 cells were placed in a 96-well plate, and treated with the compound represented by Formula 15, at indicated concentrations for 24 hours. Then, EZ-cytox (Daeil Lab, Korea) compound was added in an amount of 10 μl to each well in accordance with the manufacturer's instruction, followed by cultivation for 2 hours. A microplate reader was used to measure the absorbance at 420 nm.

T1 sequence (Q15046 whole entry): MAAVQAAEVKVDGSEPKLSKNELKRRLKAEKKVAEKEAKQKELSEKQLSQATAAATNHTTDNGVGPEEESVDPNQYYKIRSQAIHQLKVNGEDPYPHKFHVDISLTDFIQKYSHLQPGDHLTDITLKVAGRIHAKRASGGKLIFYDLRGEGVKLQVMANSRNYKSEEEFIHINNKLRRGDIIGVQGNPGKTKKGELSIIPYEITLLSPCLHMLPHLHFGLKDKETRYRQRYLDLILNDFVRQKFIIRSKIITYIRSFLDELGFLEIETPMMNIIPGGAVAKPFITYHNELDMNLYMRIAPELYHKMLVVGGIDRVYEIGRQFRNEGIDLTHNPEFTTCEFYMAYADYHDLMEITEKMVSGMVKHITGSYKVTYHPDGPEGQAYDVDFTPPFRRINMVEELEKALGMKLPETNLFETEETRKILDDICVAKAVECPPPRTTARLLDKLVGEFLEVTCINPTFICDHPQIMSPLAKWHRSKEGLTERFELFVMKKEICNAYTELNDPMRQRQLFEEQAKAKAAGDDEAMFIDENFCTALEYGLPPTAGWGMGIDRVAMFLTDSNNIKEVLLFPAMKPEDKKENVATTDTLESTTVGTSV

CCC(C(=O)O)n1/c(=N/C(=O)c2ccc(C)cc2)sc2ccccc21 (stereo not shown) [Compound of formula 15, 2-[2-(4-Methyl-benzoylimino)-benzothiazol-3-yl]-butyric acid]
KRS-AIMP2 (yeast growth, OD level) [1]: 0.9497 | cell migration [2]: inhibited | intracellular protein synthesis [3]: not influenced | viability [4]: not influenced
